Legend:
M. tuberculosis gyrase = conditions: cited from earlier work
B. anthracis gyrase = format: biochemical, Bacillus anthracis
E. coli gyrase = E. coli gyrase (Escherichia coli, UniProt P0AES4+P0AES6); format: biochemical
Sequence of E. coli gyrase (P0AES4 whole entry, one chain of several): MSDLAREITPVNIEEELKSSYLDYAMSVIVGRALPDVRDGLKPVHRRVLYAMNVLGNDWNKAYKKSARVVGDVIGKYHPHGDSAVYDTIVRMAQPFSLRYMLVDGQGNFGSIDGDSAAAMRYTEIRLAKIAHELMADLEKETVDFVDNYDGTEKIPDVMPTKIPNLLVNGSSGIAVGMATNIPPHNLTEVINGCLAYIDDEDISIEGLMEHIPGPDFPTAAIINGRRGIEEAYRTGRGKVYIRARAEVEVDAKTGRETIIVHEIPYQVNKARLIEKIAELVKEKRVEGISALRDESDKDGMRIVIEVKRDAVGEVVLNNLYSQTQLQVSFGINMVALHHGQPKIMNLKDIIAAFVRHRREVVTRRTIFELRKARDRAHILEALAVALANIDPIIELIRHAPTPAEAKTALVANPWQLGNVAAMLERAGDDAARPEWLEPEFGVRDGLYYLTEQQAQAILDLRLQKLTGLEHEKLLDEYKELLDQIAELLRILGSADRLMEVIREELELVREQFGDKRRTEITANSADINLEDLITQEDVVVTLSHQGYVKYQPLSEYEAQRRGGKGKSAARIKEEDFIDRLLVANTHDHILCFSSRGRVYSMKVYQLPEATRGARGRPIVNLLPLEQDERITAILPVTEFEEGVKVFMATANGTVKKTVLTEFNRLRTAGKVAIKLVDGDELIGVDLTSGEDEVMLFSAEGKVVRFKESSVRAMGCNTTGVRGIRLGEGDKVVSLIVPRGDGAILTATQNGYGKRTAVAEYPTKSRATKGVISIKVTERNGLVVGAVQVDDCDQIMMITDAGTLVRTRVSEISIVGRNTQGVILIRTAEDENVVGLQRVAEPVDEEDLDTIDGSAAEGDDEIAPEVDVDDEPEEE

SMILES | DNA cleavage mediated by M. tuberculosis gyrase compared with zoliflodacin (M. tuberculosis gyrase) | single-stranded compared with double-stranded DNA breaks with gyrase (B. anthracis gyrase) | total DNA breaks with gyrase relative to topoisomerase IV (B. anthracis gyrase) | single-stranded compared with double-stranded DNA breaks with gyrase (E. coli gyrase) | total DNA breaks with gyrase relative to topoisomerase IV (E. coli gyrase) | double-stranded DNA breaks with gyrase relative to topoisomerase IV (B. anthracis gyrase) | double-stranded DNA breaks with gyrase relative to topoisomerase IV (E. coli gyrase)
CC1CN2c3c(cc4c(OCC5CCC(=O)N5)noc4c3F)CC3(C(=O)NC(=O)NC3=O)C2C(C)O1 (centres unmarked) [H3D-005722] | higher levels | higher levels of single-stranded than double-stranded DNA breaks | higher levels of total DNA breaks mediated by gyrase over topoisomerase IV | higher levels of single-stranded than double-stranded DNA breaks | higher levels of total DNA breaks mediated by gyrase over topoisomerase IV |  | 
C[C@@H]1CN2c3c(cc4c(N5C(=O)OC[C@@H]5C)noc4c3F)CC3(C(=O)NC(=O)NC3=O)[C@H]2[C@H](C)O1 [zoliflodacin, Zoliflodacin] |  | more gyrase-mediated single-stranded than double-stranded DNA breaks | 2.5 to 3 times | more gyrase-mediated single-stranded than double-stranded DNA breaks | 2.5 to 3 times | ~2 times | ~2 times
